Measurements from patent US20220119354A1, “DIAMINO-SUBSTITUTED PYRIDINES AND PYRIMIDINES AS HERBICIDES” (FMC Corporation, priority 2019, published 2022).

Legend:
Assay type in all cases: in vivo
[1] = test system: barnyardgrass (Echinochloa crus-galli); assay: Test A preemergence, barnyardgrass; conditions: 0 to 100 scale, 0 is no effect, 100 is complete control
How it was run: (§1)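 Steps: plant seeds in loam/sand; spray soil (pre) or seedlings at 1–2 leaves, 2–10 cm (post) with compound in solvent plus surfactant; keep in greenhouse ~10 d; score injury visually against untreated controls, 0–100.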

[2] = test system: ragweed (common ragweed, Ambrosia elatior); assay: Test A preemergence, ragweed; conditions: 0 to 100 scale, 0 is no effect, 100 is complete control
How it was run: as §1

[3] = test system: ryegrass, Italian (Lolium multiflorum); assay: Test A preemergence, Italian ryegrass; conditions: 0 to 100 scale, 0 is no effect, 100 is complete control
How it was run: as §1

[4] = test system: foxtail, giant (Setaria faberii); assay: Test A preemergence, giant foxtail; conditions: 0 to 100 scale, 0 is no effect, 100 is complete control
How it was run: as §1

[5] = test system: pigweed (Amaranthus retroflexus); assay: Test A preemergence, pigweed; conditions: 0 to 100 scale, 0 is no effect, 100 is complete control
How it was run: as §1

[6] = test system: barnyardgrass (Echinochloa crus-galli); assay: Test A postemergence, barnyardgrass; conditions: Echinochloa crus-galli, post-emergence, 240 h, 0 to 100 scale, 0 no effect, 100 complete control, read-out: Plant response rating, Barnyardgrass; for pest or weed control at 125 g/ha: 125 g ai/ha; for pest or weed control at 500 g/ha: 500 g ai/ha
How it was run: as §1

kochia (Kochia scoparia) = assay: Test A postemergence, kochia; conditions: Bassia scoparia, post-emergence, 240 h, 0 to 100 scale, 0 no effect, 100 complete control, read-out: Plant response rating, Kochia; for pest or weed control at 125 g/ha: 125 g ai/ha; for pest or weed control at 500 g/ha: 500 g ai/ha
How it was run: as §1

[7] = test system: ragweed (common ragweed, Ambrosia elatior); assay: Test A postemergence, ragweed; conditions: Ambrosia artemisiifolia, post-emergence, 240 h, 0 to 100 scale, 0 no effect, 100 complete control, read-out: Plant response rating, Ragweed; for pest or weed control at 125 g/ha: 125 g ai/ha; for pest or weed control at 500 g/ha: 500 g ai/ha
How it was run: as §1

[8] = test system: ryegrass, Italian (Lolium multiflorum); assay: Test A postemergence, Italian ryegrass; conditions: Lolium multiflorum, post-emergence, 240 h, 0 to 100 scale, 0 no effect, 100 complete control, read-out: Plant response rating, Ryegrass, Italian; for pest or weed control at 125 g/ha: 125 g ai/ha; for pest or weed control at 500 g/ha: 500 g ai/ha
How it was run: as §1

[9] = test system: foxtail, giant (Setaria faberii); assay: Test A postemergence, giant foxtail; conditions: Setaria faberi, post-emergence, 240 h, 0 to 100 scale, 0 no effect, 100 complete control, read-out: Plant response rating, Foxtail, Giant; for pest or weed control at 125 g/ha: 125 g ai/ha; for pest or weed control at 500 g/ha: 500 g ai/ha
How it was run: as §1

[10] = test system: pigweed (Amaranthus retroflexus); assay: Test A postemergence, pigweed; conditions: Amaranthus retroflexus, post-emergence, 240 h, 0 to 100 scale, 0 no effect, 100 complete control, read-out: Plant response rating, Pigweed; for pest or weed control at 125 g/ha: 125 g ai/ha; for pest or weed control at 500 g/ha: 500 g ai/ha
How it was run: as §1

[11] = test system: wheat (Triticum aestivum); assay: Test A postemergence, wheat; conditions: Triticum aestivum, post-emergence, 240 h, 0 to 100 scale, 0 no effect, 100 complete control, read-out: Plant response rating, Wheat; for plant injury at 125 g/ha: 125 g ai/ha; for plant injury at 500 g/ha: 500 g ai/ha
How it was run: as §1

[12] = test system: blackgrass (Alopecurus myosuroides); assay: Test A postemergence, blackgrass; conditions: Alopecurus myosuroides, post-emergence, 240 h, 0 to 100 scale, 0 no effect, 100 complete control, read-out: Plant response rating, Blackgrass; for pest or weed control at 125 g/ha: 125 g ai/ha; for pest or weed control at 500 g/ha: 500 g ai/ha
How it was run: as §1

[13] = test system: galium (catchweed bedstraw, Galium aparine); assay: Test A postemergence, galium; conditions: Galium, post-emergence, 240 h, 0 to 100 scale, 0 no effect, 100 complete control, read-out: Plant response rating, Galium; for pest or weed control at 125 g/ha: 125 g ai/ha; for pest or weed control at 500 g/ha: 500 g ai/ha
How it was run: as §1

rice (Oryza sativa) = assay: Test B flooded paddy test, rice; conditions: Oryza sativa, 360 h; Flood, 250 g ai/ha, applied to paddy water, 2-leaf stage, visual evaluation after 13 to 15 d; read-out: Plant response rating, Rice (0 to 100 scale, 0 is no effect, 100 is complete control)
How it was run: (§2)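 Application was made into paddy water of pots flooded 3 cm deep at treatment, with seedlings at the 2-leaf stage. That flood level was kept throughout, and plants stayed under glass 13 to 15 d before visual assessment on a 0–100 control scale.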

[14] = test system: sedge, umbrella (small-flower umbrella sedge, Cyperus difformis); assay: Test B flooded paddy test, umbrella sedge; conditions: Cyperus difformis, 360 h; Flood, 250 g ai/ha, applied to paddy water, 2-leaf stage, visual evaluation after 13 to 15 d; read-out: Plant response rating, Sedge, Umbrella (0 to 100 scale, 0 is no effect, 100 is complete control)
How it was run: as §2

[15] = test system: barnyardgrass (Echinochloa crus-galli); assay: Test B flooded paddy test, barnyardgrass; conditions: Echinochloa crus-galli, 360 h; Flood, 250 g ai/ha, applied to paddy water, 2-leaf stage, visual evaluation after 13 to 15 d; read-out: Plant response rating, Barnyardgrass (0 to 100 scale, 0 is no effect, 100 is complete control)
How it was run: as §2

Compound | Barnyardgrass plant response rating ([1]; 125 g ai/ha) | Barnyardgrass plant response rating ([1]; 500 g ai/ha) | Ragweed plant response rating ([2]; 125 g ai/ha) | Ragweed plant response rating ([2]; 500 g ai/ha) | Ryegrass, Italian plant response rating ([3]; 125 g ai/ha) | Ryegrass, Italian plant response rating ([3]; 500 g ai/ha) | Foxtail, Giant plant response rating ([4]; 125 g ai/ha) | Foxtail, Giant plant response rating ([4]; 500 g ai/ha) | Pigweed plant response rating ([5]; 125 g ai/ha) | Pigweed plant response rating ([5]; 500 g ai/ha) | pest or weed control at 125 g/ha [6] | pest or weed control at 500 g/ha [6] | pest or weed control at 125 g/ha (kochia (Kochia scoparia)) | pest or weed control at 500 g/ha (kochia (Kochia scoparia)) | pest or weed control at 125 g/ha [7] | pest or weed control at 500 g/ha [7] | pest or weed control at 125 g/ha [8] | pest or weed control at 500 g/ha [8] | pest or weed control at 125 g/ha [9] | pest or weed control at 500 g/ha [9] | also measured
C[C@@H](Nc1ncc(C(F)(F)F)c(N)n1)c1cc2cccc(F)c2s1 [Compound 75, N2-[(1R)-1-(7-fluorobenzo[b]thien-2-yl)ethyl]-5-(trifluoromethyl)-2,4-pyrimidinediamine] | 90 | 90 | 100 | 100 | 80 | 100 | 90 | 100 | 100 | 100 | 30% | 100% | 80% | 90% | 70% | 90% | 0% | 50% | 60% | 90% | pest or weed control at 125 g/ha [10]: 100%; pest or weed control at 500 g/ha [10]: 100%; plant injury at 125 g/ha [11]: 0%; plant injury at 500 g/ha [11]: 0%; pest or weed control at 125 g/ha [12]: 0%; pest or weed control at 500 g/ha [12]: 30%; pest or weed control at 125 g/ha [13]: 80%; pest or weed control at 500 g/ha [13]: 80%; plant injury at 250 g/ha (rice (Oryza sativa)): 0%; pest or weed control at 250 g/ha [14]: 98%; pest or weed control at 250 g/ha [15]: 40%
C[C@@H](Nc1ncc(C(F)(F)F)c(N)n1)c1cc2c(F)cccc2s1 [Compound 61, N2-[(1R)-1-(4-fluorobenzo[b]thien-2-yl)ethyl]-5-(trifluoromethyl)-2,4-pyrimidinediamine] | 80 | 90 | 90 | 100 | 40 | 100 | 100 | 100 | 100 | 100 | 80% | 100% | 80% | 90% | 60% | 100% | 50% | 90% | 90% | 90% | pest or weed control at 125 g/ha [10]: 100%; pest or weed control at 500 g/ha [10]: 100%; plant injury at 125 g/ha [11]: 20%; plant injury at 500 g/ha [11]: 30%; pest or weed control at 125 g/ha [12]: 80%; pest or weed control at 500 g/ha [12]: 70%; pest or weed control at 125 g/ha [13]: 70%; pest or weed control at 500 g/ha [13]: 100%; plant injury at 250 g/ha (rice (Oryza sativa)): 0%; pest or weed control at 250 g/ha [14]: 90%; pest or weed control at 250 g/ha [15]: 40%
C[C@@H](Nc1ncc(C(F)(F)F)c(N)n1)c1cc2cccc(F)c2o1 [Compound 71, N2-[(1R)-1-(7-fluoro-2-benzofuranyl)ethyl]-5-(trifluoromethyl)-2,4-pyrimidinediamine] | 70 | 100 | 100 | 100 | 20 | 80 | 90 | 100 | 100 | 100 | 30% | 100% | 90% | 90% | 80% | 90% | 30% | 70% | 60% | 90% | pest or weed control at 125 g/ha [10]: 100%; pest or weed control at 500 g/ha [10]: 100%; plant injury at 125 g/ha [11]: 0%; plant injury at 500 g/ha [11]: 0%; pest or weed control at 125 g/ha [12]: 0%; pest or weed control at 500 g/ha [12]: 50%; pest or weed control at 125 g/ha [13]: 80%; pest or weed control at 500 g/ha [13]: 90%; plant injury at 250 g/ha (rice (Oryza sativa)): 0%; pest or weed control at 250 g/ha [14]: 0%; pest or weed control at 250 g/ha [15]: 0%
